Common to all, as to assay type: in vivo
The test system of one experiment is Sphaerotheca fuliginea. The experiment is described as follows: whole plant or invertebrate. The settings on record: for % Efficacy: in vivo.
In a further experiment the test system is Phytophthora infestans. The experiment is described as follows: whole plant or invertebrate.
Experiment [1] concerns Erysiphe graminis f.sp. hordei. The experiment is described as follows: Erysiphe test (barley)/protective. The conditions noted are these: Blumeria graminis, 168 h, protective, application rate 12.5 g/ha, evaluation 7 days after inoculation, read-out: Efficacy in %. The protocol:
Erysiphe Test (Barley)/Protective
To produce a suitable preparation of active compound, 1 part by weight of active compound or active compound combination is mixed with the stated amounts of solvent and emulsifier, and the concentrate is diluted with water to the desired concentration.
To test for protective activity, young plants are sprayed with the preparation of active compound at the stated application rate.
After the spray coating has dried on, the plants are dusted with spores of Erysiphe graminis f.sp. hordei.
The plants are placed in a greenhouse at a temperature of approximately 20° C. and a relative atmospheric humidity of approximately 80% to promote the development of mildew postules.
Evaluation is carried out 7 days after the inoculation. 0% means an efficacy which corresponds to that of the control, whereas an efficacy of 100% means that no infection is observed.

[2] abbreviates: Podosphaera fuliginea, in Cucumis sativus, 240 h, read-out: % Efficacy.
[3] abbreviates: Phytophthora infestans, in Solanum lycopersicum, 72 h, read-out: % Efficacy.

As for `N=C(N)NCCCCCCCCNCCCCCCCCNC(=N)N` [(XIX) (18), N,N′″-(iminodi-8,1-octanediyl)bis-guanidine triacetate], the pest or weed control at 2.5 g/ha in the experiment with Sphaerotheca fuliginea (setting [2]) was 43%.

`CCC1(C(=O)NC(C)c2ccc(Cl)cc2)C(C)C1(Cl)Cl` (stereo not shown) [N-[1-(4-chloro-phenyl)-ethyl]-2,2-dichloro-1-ethyl-3-methyl-cyclopropane-carboxamide]: the pest or weed control at 5 g/ha with Sphaerotheca fuliginea (setting [2]) amounted to 10%.

Consider `CO/C=C(/C(=O)OC)c1ccccc1Oc1cc(Oc2ccccc2C#N)ncn1` [azoxystrobin (XVII) (16), azoxystrobin], for which, in the experiment on Sphaerotheca fuliginea (setting [2]), the pest or weed control at 1 g/ha is 37%. With `CCCCNC(=O)n1c(NC(=O)OC)nc2ccccc21` [benomyl (LXXXIII) (30), benomyl], in the experiment with Sphaerotheca fuliginea (setting [2]), the pest or weed control at 5 g/ha was found to be 50%. Regarding `O=C1C2CC=CCC2C(=O)N1SC(Cl)(Cl)Cl` (stereo not shown) [captan (LV) (54), captan], in the experiment with Phytophthora infestans (setting [3]), the pest or weed control at 40 g/ha worked out at 0%.

Consider `COC(=O)Nc1nc2ccccc2[nH]1` [carbendazim (XXXI) (30), carbendazim], for which the pest or weed control at 2.5 g/ha in the experiment on Sphaerotheca fuliginea (setting [2]) was found to be 63%.

With `Cc1ccc2nc3sc(=O)sc3nc2c1` [chinomethionat], the pest or weed control at 20 g/ha with Phytophthora infestans (setting [3]) worked out at 0%. Take `[Cl-].[Cu+2].[Cu+2].[OH-].[OH-].[OH-]` [copper oxychloride (LXIV) (63), copper oxychloride]: in the experiment with Sphaerotheca fuliginea, the “% Efficacy” value is reported as 11%. For `Cc1ccc(-c2c(Cl)nc(C#N)n2S(=O)(=O)N(C)C)cc1` [cyamidazosulfamid (LXX IV)(73), cyamidazosulfamid], the pest or weed control at 0.5 g/ha in the experiment on Phytophthora infestans (setting [3]) was found to be 45%. Also, in the experiment on Sphaerotheca fuliginea (setting [2]), the pest or weed control at 1 g/ha amounted to 0%. For the compound `CCNC(=O)NC(=O)C(C#N)=NOC` [cymoxanil (XLVI) (45), cymoxanil], the pest or weed control at 2.5 g/ha with Phytophthora infestans (setting [3]) amounted to 0%. Also, in the experiment with Sphaerotheca fuliginea (setting [2]), the pest or weed control at 5 g/ha was found to be 15%. With `CC1COC(Cn2cncn2)(c2ccc(Oc3ccc(Cl)cc3)cc2Cl)O1` (stereo not shown) [difenoconazole], the results for the pest or weed control at 5 g/ha in the experiment with Phytophthora infestans (setting [3]) and in the experiment with Sphaerotheca fuliginea (setting [2]) were 5% and 14%, respectively. As to `COc1ccc(C(=CC(=O)N2CCOCC2)c2ccc(Cl)cc2)cc1OC` [dimetomorph (XLV) (44), dimetomorph], the figures for the pest or weed control at 1 g/ha in the experiment on Phytophthora infestans (setting [3]) and in the experiment on Sphaerotheca fuliginea (setting [2]) were 23% and 0%, respectively. Regarding `CSC1=N[C@@](C)(c2ccccc2)C(=O)N1Nc1ccccc1` [fenamidone], the pest or weed control at 0.5 g/ha in the experiment with Phytophthora infestans (setting [3]) was 48%; with Sphaerotheca fuliginea (setting [2]), 0%. As to `CC1(C(=O)Nc2ccc(O)c(Cl)c2Cl)CCCCC1` [fenhexamid (LII) (51), fenhexamid], in the experiment on Sphaerotheca fuliginea (setting [2]), the pest or weed control at 5 g/ha stood at 10%. For the compound `N#Cc1c[nH]cc1-c1cccc(Cl)c1Cl` [fenpiclonil (XXVIII) (27), 4-(2,3-dichlorophenyl)-1H-pyrrole-3-carbonitrile], the pest or weed control at 2.5 g/ha in the experiment on Sphaerotheca fuliginea (setting [2]) is 0%. As for `O=[N+]([O-])c1cc(C(F)(F)F)c(Cl)c([N+](=O)[O-])c1Nc1ncc(C(F)(F)F)cc1Cl` [fluazinam], the pest or weed control at 2.5 g/ha with Phytophthora infestans (setting [3]) was 32%; in the experiment on Sphaerotheca fuliginea (setting [2]), 0%. As for `N#Cc1c[nH]cc1-c1cccc2c1OC(F)(F)O2` [fludioxonil (XXX) (29), fludioxonil], the pest or weed control at 12.5 g/ha in experiment [1] was determined as 0%. Further, the pest or weed control at 2.5 g/ha in the experiment with Sphaerotheca fuliginea (setting [2]) stood at 0%. On to `O=C1c2ccccc2C(=O)N1SC(Cl)(Cl)Cl` [folpet], for which the pest or weed control at 40 g/ha in the experiment on Sphaerotheca fuliginea (setting [2]) was 0%. As to `O=[N+]([O-])/N=C1\NCCN1Cc1ccc(Cl)nc1` [imidacloprid (XXIV) (23), 1-[(6-chloro-3-pyridinyl)-methyl]-N-nitro-2-imidazolidinimine], in experiment [1], the pest or weed control at 12.5 g/ha stood at 0%. Take `CC(C)NC(=O)N1CC(=O)N(c2cc(Cl)cc(Cl)c2)C1=O` [iprodione (LXV) (64), iprodione]: in the experiment with Sphaerotheca fuliginea (setting [2]), the pest or weed control at 5 g/ha worked out at 0%. As for `Cc1ccc(C(C)NC(=O)[C@@H](NC(=O)OC(C)C)C(C)C)cc1` (stereo partly shown) [iprovalicarb (LI) (50), iprovalicarb], the pest or weed control at 0.5 g/ha with Phytophthora infestans (setting [3]) is 2%. Also, in the experiment with Sphaerotheca fuliginea (setting [2]), the pest or weed control at 2 g/ha was 0%.

As to `CO/N=C(/C(=O)OC)c1ccccc1COc1ccccc1C` [kresoxim-methyl (XVI) (15), kresoxim-methyl], in the experiment with Phytophthora infestans (setting [3]), the pest or weed control at 1 g/ha was 35%. In the experiment with Sphaerotheca fuliginea (setting [2]), the pest or weed control at 2 g/ha is 0%. In the case of `CC#Cc1cc(C)nc(Nc2ccccc2)n1` [mepanipyrim (L) (49), mepanipyrim], in the experiment on Phytophthora infestans (setting [3]), the pest or weed control at 5 g/ha worked out at 0%. In the experiment with Sphaerotheca fuliginea (setting [2]), the pest or weed control at 10 g/ha stood at 11%. Regarding `COCC(=O)N(c1c(C)cccc1C)C(C)C(=O)OC` (stereo not shown) [metalaxyl (XXVII)(26), metalaxyl], the pest or weed control at 1 g/ha in the experiment with Sphaerotheca fuliginea (setting [2]) is 11%. In the case of `O=C(Nc1ccccc1)N(Cc1ccc(Cl)cc1)C1CCCC1` [pencycuron (XXXVIII) (37), pencycuron], in experiment [1], the pest or weed control at 12.5 g/ha is 50%. Moreover, the pest or weed control at 10 g/ha with Phytophthora infestans (setting [3]) amounted to 14%. In addition, the pest or weed control at 5 g/ha with Sphaerotheca fuliginea (setting [2]) was found to be 30%. As to `CO/C=C(/C(=O)OC)c1ccccc1COc1cccc(C(F)(F)F)n1` [picoxystrobin (LXXXIII) (82), picoxystrobin], the pest or weed control at 2 g/ha in the experiment with Sphaerotheca fuliginea (setting [2]) stood at 0%. As for `CCCN(CCOc1c(Cl)cc(Cl)cc1Cl)C(=O)n1ccnc1` [prochloraz (XXI) (20), prochloraz], the pest or weed control at 10 g/ha with Phytophthora infestans (setting [3]) came to 0%. In the case of `CC12CC1(C)C(=O)N(c1cc(Cl)cc(Cl)c1)C2=O` (stereo not shown) [procymidone (XLII) (41), procymidone], the pest or weed control at 5 g/ha in the experiment on Sphaerotheca fuliginea (setting [2]) turned out to be 0%. For `Cc1cc(C)nc(Nc2ccccc2)n1` [pyrimethanil (XLIX)(48), pyrimethanil], the pest or weed control at 10 g/ha in the experiment with Phytophthora infestans (setting [3]) was 11%. In the experiment with Sphaerotheca fuliginea (setting [2]), the pest or weed control at 5 g/ha was 11%. Consider `CCCN(CC)CC1COC2(CCC(C(C)(C)C)CC2)O1` (stereo not shown) [spiroxamine (II) (1), 8-t-butyl-2-(N-ethyl-N-n-propyl-amino)-methyl-1,4-dioxaspiro-[5,4]-decane], for which, in the experiment with Phytophthora infestans (setting [3]), the pest or weed control at 10 g/ha amounted to 0%. Also, in the experiment with Sphaerotheca fuliginea (setting [2]), the pest or weed control at 5 g/ha came to 0%. On to `S1SSSSSSS1` [sulphur (LXII) (62), sulphur], for which the pest or weed control at 25 g/ha with Phytophthora infestans (setting [3]) and in the experiment on Sphaerotheca fuliginea (setting [2]) was 0% throughout.

Consider `N#Cc1c(Cl)c(Cl)c(Cl)c(C#N)c1Cl` [tetrachloro-isophthalo-dinitrile], for which, in the experiment with Sphaerotheca fuliginea (setting [2]), the pest or weed control at 40 g/ha turned out to be 0%. The same measure, in the same setting: as for `Cc1ccc(N(SC(F)(Cl)Cl)S(=O)(=O)N(C)C)cc1` [tolylfluanid], the figure is 0%.

With `CC(C)(C)C(=O)C(Oc1ccc(Cl)cc1)n1cncn1` (stereo not shown) [triadimefon (IX) (8), 1-(4-chloro-phenoxy)-3,3-dimethyl-1-(1,2,4-triazol-1-yl)-butan-2-one], in the experiment with Sphaerotheca fuliginea (setting [2]), the pest or weed control at 10 g/ha was determined as 0%. Regarding `CO/N=C(/C(=O)OC)c1ccccc1CO/N=C(\C)c1cccc(C(F)(F)F)c1` [trifloxystrobin (LXXVI) (75), trifloxystrobin], the pest or weed control at 2 g/ha in the experiment with Sphaerotheca fuliginea (setting [2]) turned out to be 43%. Turning to `C=CC1(C)OC(=O)N(c2cc(Cl)cc(Cl)c2)C1=O` (stereo not shown) [vinclozolin], in the experiment with Sphaerotheca fuliginea (setting [2]), the pest or weed control at 5 g/ha is 10%. With `CCC(C)(NC(=O)c1cc(Cl)c(C)c(Cl)c1)C(=O)CCl` (stereo not shown) [zoxamide (LXXIII)(72), zoxamide], the pest or weed control at 1 g/ha with Phytophthora infestans (setting [3]) came out at 19%; with Sphaerotheca fuliginea (setting [2]), 0%.

Consider dichlofluanid, for which the “% Efficacy” value in the experiment on Sphaerotheca fuliginea is given as 0%. In the case of mancozeb [mancozeb (XLIII) (42)], the “% Efficacy” value with Phytophthora infestans (in vivo) turned out to be 23%.

Source of the values: patent US20030229087A1 (priority 2002, published 2003).
